Measured values from patent publication US5688764A, “Insecticidal peptides from spider venom” (NPS Pharmaceuticals, Inc., priority 1995, dated 1997).

B1: AaIT: scorpion peptide insect toxin expressed from a recombinant baculovirus (McCutchen et al. 1991) (protein, UniProt P01497 19-88, looked up)
Beta-insect excitatory toxin 1: KKNGYAVDSSGKAPECLLSNYCNNECTKVHYADKGYCCLLSCYCFGLNDDKKVLEISDTRKSYCDTTIIN

Assays:
Balb-C mice = experiment: Mammalian toxicity by intraperitoneal injection in mice; type: in vivo; details: male Balb-C mice, 50 micrograms per mouse (~2 mg/kg), up to 120 hours after treatment
Method: Peptide A was tested for mammalian toxicity by intraperitoneal injection in mice. Two male Balb-C mice (~25 grams each) were injected with peptide A in physiological saline, at a dose of 50 micrograms per mouse (~2 mg/kg). Two control mice were injected with an equal volume of saline carrier. The mice were observed continuously for 1.5 hours, and periodically thereafter.

[1] = test system: tobacco budworm (TBW), Heliothis virescens; experiment: Bioassay: injection into the abdomen of fifth instar tobacco budworm larvae, paralysis; type: in vivo; details: probit regression
Method: Whole venom was isolated by known techniques from the spider, Calisoga. The whole venom, or peptides purified therefrom, were dissolved in sterile buffered physiological saline. For testing and characterization purposes, venom and toxins were administered by injection into the abdomen of fifth instar larvae of the tobacco budworm (TBW), Heliothis virescens. Control larvae were injected with an equal volume of saline. After treatment, the insects were placed individually in Petri dishes, with food, and observed.
Insects that could not right themselves within thirty seconds of being placed on their backs or side were considered paralyzed. Fifty percent paralytic dose (PD50) values were calculated by probit regression (see Example 2). Raymond, M., Ser. Ent. med et Parasitol, 22(2), 117-121 (1985).
Whole venom from a spider, Calisoga sp. (Aranae: Nemesiidae), was dissolved in the desired volume of sterile, buffered physiological saline. Samples were administered by injection into the abdomen of the fifth instar larvae of the tobacco budworm, Heliothis virescens, as previously described. Control larvae were injected with equal volumes of saline.

[2] = test system: Heliothis virescens larvae; details: toxin secreted in the course of infection by recombinant baculovirus; natural host; cited from earlier work
Manduca sexta larvae = details: toxin secreted in the course of infection by recombinant baculovirus; unnatural host; cited from earlier work

Molecule | mammalian toxicity: effects observed (Balb-C mice) | PD50 95% confidence interval [1] [µg/g] | PD50 (fifty percent paralytic dose) [1] [µg/g] | effect on larvae (paralysis) [2] | effect on larvae (paralysis) (Manduca sexta larvae)
peptide A (CISARYPCSNSKDCCSGNCGTFWTCYIRKDPCSKECLAP) | No effects were noted | 1.70 to 3.22 | 2.37 |  | 
peptide B (CISARYPCSNSKDCCSGNCGTFWTCFIRKDPCSKECLAP) |  | 1.72 to 8.0 | 3.7 |  | 
B1 |  |  |  | caused paralysis | caused paralysis
